According to ChEMBL document CHEMBL4715813, “Allicin-inspired pyridyl disulfides as antimicrobial agents for multidrug-resistant Staphylococcus aureus” (Eur J Med Chem, 2018):

Columns and labels:
Type in all cases: functional
[1] = system: Enterococcus faecalis; experiment: Antibacterial activity against vancomycin-susceptible Enterococcus faecalis ATCC 29212 assessed as zone of inhibition by disc diffusion method; further: test concentration or dose not given here
[2] = system: Acinetobacter baumannii; experiment: Antibacterial activity against Acinetobacter baumannii ATCC 19606 assessed as zone of inhibition by disc diffusion method; further: test concentration or dose not given here
[3] = system: Escherichia coli; experiment: Antibacterial activity against beta-lactam resistant Escherichia coli BAA 2326 assessed as zone of inhibition by disc diffusion method; further: test concentration or dose not given here
[4] = system: Klebsiella pneumoniae; experiment: Antibacterial activity against multidrug-resistant Klebsiella pneumoniae ATCC 700603 assessed as zone of inhibition by disc diffusion method; further: test concentration or dose not given here
[5] = system: Staphylococcus epidermidis; experiment: Antibacterial activity against Staphylococcus epidermidis ATCC 14990 assessed as zone of inhibition by disc diffusion method; further: test concentration or dose not given here
[6] = system: Enterococcus faecium; experiment: Antibacterial activity against vancomycin-resistant Enterococcus faecium ATCC 700221 assessed as zone of inhibition by disc diffusion method; further: test concentration or dose not given here
[7] = system: Bacillus anthracis; experiment: Antibacterial activity against Bacillus anthracis Sterne 34F2 assessed as zone of inhibition by disc diffusion method
[8] = system: Staphylococcus aureus; experiment: Antibacterial activity against heterogeneous vancomycin-intermediate resistant Staphylococcus aureus Mu3 ATCC 700698 assessed as zone of inhibition by disc diffusion method; further: test concentration or dose not given here
[9] = system: Pseudomonas aeruginosa; experiment: Antibacterial activity against Pseudomonas aeruginosa ATCC 15422 assessed as zone of inhibition by disc diffusion method; further: test concentration or dose not given here
[10] = system: Staphylococcus aureus; experiment: Antibacterial activity against community acquired methicillin-resistant Staphylococcus aureus BAA 1747 assessed as zone of inhibition by disc diffusion method; further: test concentration or dose not given here
[11] = system: Staphylococcus aureus; experiment: Antibacterial activity against vancomycin-resistant Staphylococcus aureus HIP11714 assessed as zone of inhibition by disc diffusion method; further: test concentration or dose not given here
[12] = system: Enterobacter cloacae; experiment: Antibacterial activity against Enterobacter cloacae ATCC 23355 assessed as zone of inhibition by disc diffusion method; further: test concentration or dose not given here
[13] = system: Staphylococcus aureus; experiment: Antibacterial activity against hospital acquired methicillin-resistant Staphylococcus aureus ATCC 43300 assessed as zone of inhibition by disc diffusion method; further: test concentration or dose not given here
[14] = system: Staphylococcus aureus; experiment: Antibacterial activity against vancomycin-intermediate resistant Staphylococcus aureus Mu50 ATCC 700699 assessed as zone of inhibition by disc diffusion method; further: test concentration or dose not given here
[15] = system: Acinetobacter baumannii; experiment: Antibacterial activity against multidrug-resistant Acinetobacter baumannii BAA 1605 assessed as zone of inhibition by disc diffusion method; further: test concentration or dose not given here
[16] = system: Staphylococcus aureus; experiment: Antibacterial activity against methicillin-susceptible Staphylococcus aureus ATCC 25923 assessed as zone of inhibition by disc diffusion method; further: test concentration or dose not given here

SMILES: c1ccc(CSSc2ccccn2)cc1
- diameter of the inhibition zone (DIZ) [1]: 14 mm
- diameter of the inhibition zone (DIZ) [2]: 9 mm
- diameter of the inhibition zone (DIZ) [3]: 0 mm
- diameter of the inhibition zone (DIZ) [4]: 0 mm
- diameter of the inhibition zone (DIZ) [5]: 38 mm
- diameter of the inhibition zone (DIZ) [6]: 14 mm
- diameter of the inhibition zone (DIZ) [7]: 38 mm
- diameter of the inhibition zone (DIZ) [8]: 19 mm
- diameter of the inhibition zone (DIZ) [9]: 0 mm
- diameter of the inhibition zone (DIZ) [10]: 20 mm
- diameter of the inhibition zone (DIZ) [11]: 30 mm
- diameter of the inhibition zone (DIZ) [12]: 0 mm
- diameter of the inhibition zone (DIZ) [13]: 28 mm
- diameter of the inhibition zone (DIZ) [14]: 23 mm
- diameter of the inhibition zone (DIZ) [15]: 0 mm
- diameter of the inhibition zone (DIZ) [16]: 26 mm

SMILES: CCSSc1ccccn1
- diameter of the inhibition zone (DIZ) [1]: 15 mm
- diameter of the inhibition zone (DIZ) [2]: 18 mm
- diameter of the inhibition zone (DIZ) [3]: 0 mm
- diameter of the inhibition zone (DIZ) [4]: 0 mm
- diameter of the inhibition zone (DIZ) [5]: 26 mm
- diameter of the inhibition zone (DIZ) [6]: 0 mm
- diameter of the inhibition zone (DIZ) [7]: 50 mm
- diameter of the inhibition zone (DIZ) [8]: 0 mm
- diameter of the inhibition zone (DIZ) [9]: 0 mm
- diameter of the inhibition zone (DIZ) [10]: 13 mm
- diameter of the inhibition zone (DIZ) [11]: 0 mm
- diameter of the inhibition zone (DIZ) [12]: 10 mm
- diameter of the inhibition zone (DIZ) [13]: 12 mm
- diameter of the inhibition zone (DIZ) [14]: 0 mm
- diameter of the inhibition zone (DIZ) [15]: 12 mm
- diameter of the inhibition zone (DIZ) [16]: 13 mm

SMILES: CC(C)CCSSc1ccccn1
- diameter of the inhibition zone (DIZ) [1]: 0 mm
- diameter of the inhibition zone (DIZ) [2]: 0 mm
- diameter of the inhibition zone (DIZ) [3]: 0 mm
- diameter of the inhibition zone (DIZ) [4]: 0 mm
- diameter of the inhibition zone (DIZ) [5]: >50 mm
- diameter of the inhibition zone (DIZ) [6]: 0 mm
- diameter of the inhibition zone (DIZ) [7]: >50 mm
- diameter of the inhibition zone (DIZ) [8]: 11 mm
- diameter of the inhibition zone (DIZ) [9]: 0 mm
- diameter of the inhibition zone (DIZ) [10]: 0 mm
- diameter of the inhibition zone (DIZ) [11]: 14 mm
- diameter of the inhibition zone (DIZ) [12]: 0 mm
- diameter of the inhibition zone (DIZ) [13]: 0 mm
- diameter of the inhibition zone (DIZ) [14]: 12 mm
- diameter of the inhibition zone (DIZ) [15]: 0 mm
- diameter of the inhibition zone (DIZ) [16]: 0 mm

SMILES: CC(C)SSc1ccccn1
- diameter of the inhibition zone (DIZ) [1]: 0 mm
- diameter of the inhibition zone (DIZ) [2]: 0 mm
- diameter of the inhibition zone (DIZ) [3]: 0 mm
- diameter of the inhibition zone (DIZ) [4]: 0 mm
- diameter of the inhibition zone (DIZ) [5]: 13 mm
- diameter of the inhibition zone (DIZ) [6]: 0 mm
- diameter of the inhibition zone (DIZ) [7]: 0 mm
- diameter of the inhibition zone (DIZ) [8]: 0 mm
- diameter of the inhibition zone (DIZ) [9]: 0 mm
- diameter of the inhibition zone (DIZ) [10]: 0 mm
- diameter of the inhibition zone (DIZ) [11]: 0 mm
- diameter of the inhibition zone (DIZ) [12]: 0 mm
- diameter of the inhibition zone (DIZ) [13]: 0 mm
- diameter of the inhibition zone (DIZ) [14]: 0 mm
- diameter of the inhibition zone (DIZ) [15]: 0 mm
- diameter of the inhibition zone (DIZ) [16]: 0 mm

SMILES: CCCCCCCCCCSSc1ccccn1
- diameter of the inhibition zone (DIZ) [1]: 9 mm
- diameter of the inhibition zone (DIZ) [2]: 0 mm
- diameter of the inhibition zone (DIZ) [3]: 0 mm
- diameter of the inhibition zone (DIZ) [4]: 0 mm
- diameter of the inhibition zone (DIZ) [5]: 26 mm
- diameter of the inhibition zone (DIZ) [6]: 9 mm
- diameter of the inhibition zone (DIZ) [7]: 28 mm
- diameter of the inhibition zone (DIZ) [8]: 0 mm
- diameter of the inhibition zone (DIZ) [9]: 0 mm
- diameter of the inhibition zone (DIZ) [10]: 15 mm
- diameter of the inhibition zone (DIZ) [11]: 11 mm
- diameter of the inhibition zone (DIZ) [12]: 0 mm
- diameter of the inhibition zone (DIZ) [13]: 14 mm
- diameter of the inhibition zone (DIZ) [14]: 11 mm
- diameter of the inhibition zone (DIZ) [15]: 0 mm
- diameter of the inhibition zone (DIZ) [16]: 12 mm

SMILES: CC(C)C(C)SSc1ccccn1 (stereo unspecified)
- diameter of the inhibition zone (DIZ) [1]: 0 mm
- diameter of the inhibition zone (DIZ) [2]: 0 mm
- diameter of the inhibition zone (DIZ) [3]: 0 mm
- diameter of the inhibition zone (DIZ) [4]: 0 mm
- diameter of the inhibition zone (DIZ) [5]: 24 mm
- diameter of the inhibition zone (DIZ) [6]: 0 mm
- diameter of the inhibition zone (DIZ) [7]: 21 mm
- diameter of the inhibition zone (DIZ) [8]: 0 mm
- diameter of the inhibition zone (DIZ) [9]: 0 mm
- diameter of the inhibition zone (DIZ) [10]: 0 mm
- diameter of the inhibition zone (DIZ) [11]: 0 mm
- diameter of the inhibition zone (DIZ) [12]: 0 mm
- diameter of the inhibition zone (DIZ) [13]: 0 mm
- diameter of the inhibition zone (DIZ) [14]: 0 mm
- diameter of the inhibition zone (DIZ) [15]: 0 mm
- diameter of the inhibition zone (DIZ) [16]: 0 mm
